pIC50: −log10 of the molar value.
Biological target: c-Met kinase (histidine-tagged c-Met catalytic domain fusion protein) (Homo sapiens (Human), UniProt P08581)
Experiment: In Vitro c-Met Kinase Enzyme Assays
Type: biochemical
Conditions: inhibition of c-Met kinase; phosphorylation of poly Glu-Tyr, 5 μM ATP, 25 minutes at 30° C.
Procedure: The compounds of the invention were screened in vitro for their ability to inhibit c-Met kinase activity. The IC50 values for the inhibition of c-Met kinase were determined as described in the literature with some modifications (Wang, X. et al, Mol. Cancer. Ther. 2003, 2(11):1085-1092; Calic, M. et al., Croatica Chemical ACTA. 2005, 78(3):367-374). Briefly, histidine-tagged c-Met catalytic domain fusion protein (Invitrogen, # PV3143) was used for the assay. IC50 measurements were based on the degree of phosphorylation of poly Glu-Tyr (Sigma-Aldrich, # PO275) that was coated (0.01 mg/per well) on 96-well microplates (R&D systems, # DY990). The reaction was carried out in a 50 μL solution containing 50 mM HEPES (pH 7.5), 10 mM MnCl2, 10 mM MgCl2, 0.5 mM DTT, 100 μM Na3VO4, 5 μM ATP (Cell Signaling Technology, #9804) and serial dilutions of the test compound. The reaction lasted for 25 minutes at 30° C. After the reaction was completed, the contents of the plates were discarded. Plates were then washed with TBS-T (250 μL/well, 5×) and then blocked with TBS-T containing 1% BSA for 2 hours. The contents of the plates was discarded, and 100 μL (per well) of peroxidase-labeled anti-phospho-tyrosine antibody (Sigma, # A5964) diluted (1:60,000) in 1% BSA containing TBS-T were then added and incubated for 1 hour. Plates were washed with TBS-T (250 μL/well, 5×) and followed by the color reaction using 100 μL (1:1 mixture) of H2O2 and tetramethylbenzidine (R&D Systems, # DY999). The reaction was stopped in minutes with […] of 2 N H2SO4. The optical density was measured immediately using a microplate reader at 450 nm with wavelength correction at 540 nm. IC50 values were calculated with the GraphPad Prism software. The linear range (i.e., the time period over which the rate remained equivalent to the initial rate) was determined for the kinase and IC50 determinations were performied within this range.

c-Met kinase (histidine-tagged c-Met catalytic domain fusion protein), sequence (P08581 1078-1345): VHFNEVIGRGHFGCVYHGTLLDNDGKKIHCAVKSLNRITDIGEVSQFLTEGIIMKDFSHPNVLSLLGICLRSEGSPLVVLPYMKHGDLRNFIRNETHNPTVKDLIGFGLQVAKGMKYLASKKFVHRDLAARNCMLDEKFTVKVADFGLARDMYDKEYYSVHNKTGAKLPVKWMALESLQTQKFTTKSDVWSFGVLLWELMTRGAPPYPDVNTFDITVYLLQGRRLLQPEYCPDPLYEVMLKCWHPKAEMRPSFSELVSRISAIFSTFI

C[C@@H](O)CNC(=O)c1ccc(-c2cnc3ncc(Cc4ccc5ncccc5c4)n3n2)cc1F [Formula I, 2-fluoro-N-[(2R)-2-hydroxypropyl]-4-[7-(quinolin-6-ylmethyl)imidazo[1,2-b][1,2,4]triazin-2-yl]benzamide]
pIC50: 9.00 to 10.00

CNC(=O)c1ccc(-c2cnc3ncc(Cc4ccc5ncccc5c4)n3n2)cc1Cl [Formula II, 2-chloro-N-methyl-4-(7-(quinolin-6-ylmethyl)imidazo[1,2-b][1,2,4]triazin-2-yl)benzamide]
pIC50: 9.00 to 10.00

Cc1nc([C@H](C)NC(=O)c2ccc(-c3cnc4ncc(Cc5ccc6ncccc6c5)n4n3)cc2Cl)no1 [Formula III, 2-chloro-N-[(1S)-1-(5-methyl-1,2,4-oxadiazol-3-yl)ethyl]-4-[7-(quinolin-6-ylmethyl)imidazo[1,2-b][1,2,4]triazin-2-yl]benzamide]
pIC50: 9.00 to 10.00

CNC(=O)c1ccc(-c2cnc3ncc(Cc4ccc5ncccc5c4)n3n2)cn1 [Formula IV, N-methyl-5-[7-(quinolin-6-ylmethyl)imidazo[1,2-b][1,2,4]triazin-2-yl]pyridine-2-carboxamide]
pIC50: 9.00 to 10.00

CNC(=O)c1ccc(-c2cnc3ncc(Cc4ccc5ncccc5c4)n3n2)cc1C [Formula V, N,2-dimethyl-4-[7-(quinolin-6-ylmethyl)imidazo[1,2-b][1,2,4]triazin-2-yl]benzamide]
pIC50: 9.00 to 10.00

Source: patent US8487096B2, “Imidazo[1,2-B][1,2,4]triazines as C-MET inhibitors” (Incyte Corporation, priority 2010, dated 2013)
